Measurements published in US8236778B2, “Synergistic 5′-methylthioadenosine combinations” (Proyecto de Biomedicina Cima, S.L., priority 2008, dated 2012).

Key:
[1] = test system: acute Experimental Autoimmune Encephalomyelitis (EAE); settings: model of Multiple Sclerosis; cited from earlier work
acute EAE model = experiment: EAE disease severity score in MS animal model (acute EAE model, rMOG35-55 immunization); type: in vivo; settings: female C57/bl6 mice, daily i.p. treatment starting after immunization, followed to day 31; (27.84 mg/kg), GA 0.1 mg/mouse/day; n=5 per group
[2] = wide range of doses; cited from earlier work
[3] = test system: Chronic-Relapsing EAE (RR-EAE); settings: model of Multiple Sclerosis; cited from earlier work
MS relapses = settings: current GA therapy; cited from earlier work

Q: For CSC[C@H]1O[C@@H](n2cnc3c(N)ncnc32)[C@H](O)[C@@H]1O [MTA, 5′-methylthioadenosine], which “effect on acute EAE” value [1] is on record?
A: capable of preventing

Q: And the “course / severity of the disease (EAE)” value (acute EAE model)?
A: course of the disease with intermediate intensity

Q: And the side effects [2]?
A: without side effects

Q: And the “effect on Chronic-Relapsing EAE” value [3]?
A: ameliorates

Q: What does the source list for “L-glutamic acid polymer with L-alanine, L-lysine and L-tyrosine, acetate (salt) [GA, reference compound]”?
A: course / severity of the disease (EAE) (acute EAE model): course of the disease with intermediate intensity; efficacy in preventing new relapses in MS (MS relapses): not more than 25%
